The source of these data is a melting point compilation (Tetko et al.; mined from patent text by program, amines drawn as free bases though some values may be those of a salt).

Residues, ends and D or L forms follow the SMILES beside them. *: point of attachment. Cbz = O=C(OCc1ccccc1)*; NHPr = CCCN* A value given as a limit tells only on which side of the number the result lay.

What is called melting point is the temperature, or range, at which the solid turns liquid. `CCC1CC(=O)N(Cc2cccc(C(=O)NC3CCCC3)c2)N=C1c1ccc(OC)c(OC2CCCC2)c1` (stereo not given) gave a melting point of 153 °C. The same measure for `CCOC(=O)c1cc(=O)c2cc(Oc3ccccc3)c(NS(C)(=O)=O)cc2o1`: 155 to 156 °C; for `COc1ccc(/C=C/c2ccc3nc(C(=O)N[C@@H](Cc4ccc(OCc5ccccc5)cc4)C(=O)O)cn3c2)cc1`: 262 to 263 °C. The same measure for `CC(C)(C)OC(=O)N1CCC(c2ccc3[nH]c(-c4ccc(S(C)(=O)=O)cc4F)nc3c2)CC1`: 208 to 212 °C; for `COCOc1cccc2c(=O)[nH]c(CCCN(C)C)cc12`: 110 to 112 °C. Then `CC(Cc1cccc(N)c1)NC=O` (stereo not given), with 107 to 108 °C; and `COc1cc(COc2ncccc2C#N)ccc1OCc1nc(-c2ccccc2)oc1C`, with 117 to 118 °C; and `CC1(C)C2CC[C@]1(C)C(=O)C(C(=O)Nc1cc(C(F)(F)F)cc(C(F)(F)F)c1)C2=O` (stereo not given in full), with 68 to 72 °C. `CCOC(=O)c1c(-c2ccc(OC)c(OC)c2)c2cc(Cl)ccc2n(C)c1=O`: the melting point is 104 to 106 °C. `c1ccc2c(c1)c(-c1cc3nccnc3[nH]1)cn2CCCN1CCCCC1` had a melting point of 240 °C. Then `COc1cc2c(cc1OCc1ccccc1)CCN(C(=O)c1ccc(C#N)cc1)C2=O`, with 158 to 159 °C; and `N[C@H]1CCN(C(=O)c2cc(C(F)(F)F)cc(C(F)(F)F)c2)[C@H](Cc2ccc(Cl)cc2)C1`, with 79 to 81 °C. Take `CCCCCCCCCCCCSc1nnn[nH]1`: the melting point fell in the range of 85 to 87 °C. With `CCC1c2c(ncn2C)CCN1C(=O)NC(C)C` (stereo not given), the melting point came out at 220 °C. The same measure for `C#CCNc1ccc(C(C)=O)cc1`: 97 to 100 °C; for `O=C(c1ccc(F)cc1)N1CCC[C@H](c2noc(Cc3ccccc3)n2)C1`: 75 °C. With `COC(=O)c1ccc(Cl)cc1NC(=O)CSc1ccccc1Br`, the melting point fell in the range of 99 to 101 °C.

`Nc1cccc(-c2ccc(CCN3CCN(C(=O)Nc4ccc(Cl)cc4)CC3)cc2)n1` displayed a melting point of 160 to 162 °C. The same measure for `COc1ccccc1N1CCN(CCCNC(=O)c2cccc3c(=O)c(C)c(CCc4ccccc4)oc23)CC1`: 142 to 146 °C.

As for `CCC=C(c1ccccc1N1CCCCC1)C(C(N)=O)c1ccc(C(=O)OCC)cc1` (stereo not given), the melting point was 115 to 117 °C. The same measure for `CCCNC(=O)C1CCCN1C(=O)C(C)NC(=O)OCc1ccccc1` (stereo not drawn) (Cbz-Ala-Pro-NHPr; configuration not given here): 117 to 120 °C. The compound `CC(=NO)c1ccnc(Cl)c1` yielded a melting point of 143 °C. The compound `CN1C(=O)CN=C(c2ccccc2F)c2c1ccc(NC(=O)NC(C)(C)C)c2Cl` gave a melting point of 206 to 208 °C.

Take `COc1ccccc1-c1coc2cc(O)c(Cl)cc2c1=O`: the melting point was 228 to 230 °C. Then `COc1cc(C(C)=O)ccc1OCCCN1CCN(c2csc3cc(F)ccc23)CC1`, with 172 to 174 °C; and `CC(=O)OC1C(=O)N(c2nnc(C(C)(C)C)s2)C(=O)N1C` (stereo not given), with 168 °C. The compound `Cc1nnc(-c2ccc3occ(-c4cnn(Cc5ccccc5)c4)c3n2)o1` came in with a melting point of 194 to 195 °C. Take `CC1(C)CCC(C)(C)c2cc(CCCO)c(/C=C/c3ccc(C(=O)O)cc3)cc21`: the melting point is 213 °C. The compound `O=C1CC2Cc3cc(N4CCCCC4)ccc3C2=NN1` (stereo not given) came in with a melting point of 252 to 254 °C. In the case of `CCOC(=O)COc1ccc2[nH]ccc2c1`, the melting point was 74 to 77 °C. Then `Cc1ccc(NC(=O)C(C)C)o1`, with 78 °C.

With `N#CCCCN1CCN(c2nc3nccc(-c4ccncc4)n3n2)CC1`, the melting point was in the range of 147 to 148 °C.

Compound `COc1cccc(OC)c1CN1CCC(=O)C(C(c2ccc(F)cc2)c2ccc(F)cc2)C1` (stereo not given) displayed a melting point of 125 to 126 °C. Then `FC(F)(F)c1ccc(Cl)cc1CN1CCNc2ncc(-c3ccnc(N4CCNCC4)c3)cc21`, with 189 °C; and `O=c1[nH]ccc2c1ccc1cc[nH]c12`, with 244 to 245 °C. As to `O=C(C=Cc1cc(O)c(O)cc1O)OCCc1ccccc1`, the melting point lay within 146 to 149 °C. With `Cc1nc2ccccc2n1C(C)(C)CO`, the melting point was in the range of 180 to 181 °C. The compound `CCCCCCCCc1c(CC)nc2nc(Cl)nn2c1N` gave a melting point of 202 to 203 °C.

Compound `Nn1cccc1C(=O)c1ccccc1` had a melting point of 65 to 69 °C. The same measure for `CC(C)(C)P1(=S)CCC1`: 120 to 121 °C; for `Cn1c(CCN2CCN(c3ccccc3)CC2)nc2c3ccccc3ccc21`: 153 to 155 °C.

In turn, `COc1ccc(C(=O)Nc2ccc(C)c(NC(=O)c3cccc(N(C)C)c3)c2)cc1OC` gave a melting point of 204 to 205 °C. On to `CCCCCCCCCCCCC/C=C(/C(=O)Nc1ccc(C(=O)O)cc1)c1ccc2c(c1)C(C)(C)CCC2(C)C`, for which the melting point lay within 59 to 60 °C. The same measure for `O=C1NC(=O)/C(=C/c2cn(-c3ccccc3)nc2OCc2ccccc2)S1`: > 300 °C; for `FC(F)(F)c1cccc(Nc2ccccc2-c2n[nH]c(=S)s2)c1`: 140 to 142 °C. Compound `COc1cnc(C#N)c(C)c1` displayed a melting point of 80 to 81 °C. For the compound `COc1cccc(CC(=O)O)c1OCCCc1cc(OC(C)C)nn1Cc1ccc2ccccc2n1`, the melting point was 129 to 130 °C. For the compound `CCCCCCn1ccc(=O)c(OCc2ccccc2)c1C`, the melting point amounted to 46 °C. `CN1C(=O)CCC2(C)c3ccc(-c4ccccc4)cc3CCC12` (single isomer, unassigned; (+)) came in with a melting point of 155 °C. The compound `CNC(=S)C1(c2cccc([N+](=O)[O-])c2)CCCCC1=O` (stereo not given) yielded a melting point of 128 to 132 °C.

With `O=C(O)c1cn(-c2nccs2)c2nc(Cl)cc(Cl)c2c1=O`, the melting point is 264 to 266 °C.

On to `CCOC(=O)C(C#N)(CCCN(C)CCc1ccc(C(=O)OC)cc1)c1ccc(OC)c(OC)c1` (stereo not given), for which the melting point is 75 to 77 °C. Then `Cc1cc(Oc2c(Cl)cc(C(F)(F)F)cc2Cl)nn1C(=O)NCc1ccccn1`, with 121 to 123 °C; and `O=C1C=C(Nc2ccc(F)cc2)CCN1`, with 195 to 198 °C; and `COCC1OC(n2cnc3c(N)nc(F)nc32)C(O)C1O` (stereo not given), with 231 to 233 °C. The same measure for `CCOC(=O)c1c(O)c2cnc(-c3ccccc3)nc2n(Cc2ccccc2)c1=O`: 230 to 231 °C; for `C=C(c1ccc(F)cc1)c1ccccc1Cl`: 73 to 74 °C. `COc1cc2ncnc(N3CCN(C(=S)Nc4ccncc4)CC3)c2cc1OC` registered a melting point of 218 to 220 °C. Then `CCOCc1nc2c(N)nc(C)c(C)c2n1Cc1cc(-c2cccnc2)no1`, with 189 to 191 °C; and `CC1(C)CC(O)CC2(C)OC(=O)C=C12` (stereo not given), with 148 to 149 °C. As for `Nc1ccc(F)cc1-c1nc[nH]n1`, the melting point is 142 to 144 °C. Then `CNC(=O)N1C[C@@H](Oc2cccc(C(F)(F)F)c2)[C@@H]1C` (relative stereo), with 89 to 91 °C.

As for `CC(C(=O)Oc1ccc([N+](=O)[O-])cc1)c1ccccc1` (stereo not given), the melting point was in the range of 55 to 56.5 °C. Then `COCC(C)(C)Cc1cc(N(C)C)ccn1`, with 56 to 58 °C. Then `Nc1nc2cc(-c3ccc(C=C4SC(=O)NC4=O)cn3)cc(C34CC5CC(CC(C5)C3)C4)c2o1`, with > 360 °C; and `COC(=O)C(C)=CC1C(C(=O)OC(C)(C)N2C(=O)C=CC2=O)C1(C)C` (stereo not given), with 98.7 °C; and `CC(C)OC(=O)NCNCN=O`, with 66 to 67 °C.

`Cc1oc(-c2ccco2)nc1COc1ccc(COc2ncccc2CC#N)cc1` registered a melting point of 141 to 142 °C. The compound `CCC(=O)c1cc(Cl)c(C)cc1OC` displayed a melting point of 79 °C. `COC(=O)[C@H](O)[C@@H](NC(=O)OC(C)(C)C)c1ccc(N(C)C)cc1` displayed a melting point of 120 °C. Then `CSC1=Nc2ccccc2Cn2nnnc21`, with 105 to 108 °C; and `COc1cc(NC(=O)OC(C)(C)C)c(N)cc1C#Cc1ccccc1`, with 158 °C; and `CCOC(=O)C1=C(COCc2nnn(CCNc3cc(Cl)ncn3)n2)NC(C)=C(C(=O)OC)C1c1cccc(Cl)c1Cl` (stereo not given), with 160 to 162 °C. The same measure for `CCn1cc(C(=O)O)c(=O)c2cc(F)c(N3CCC(N(C)C)CC3)c(F)c21`: 210 to 211 °C; for `Cc1cc(C(=O)Nc2ccc(C(=O)O)cc2)on1`: > 300 °C. Then `CCCCn1c(=O)c2[nH]cnc2n(CCCC)c1=O`, with 166 to 169 °C; and `Cc1cccc(Nc2ccc(-c3ccccc3)cc2)c1`, with 95 °C; and `Cc1oc(-c2cccc(-c3nc(CCO)c(C)o3)c2)nc1CCO`, with 134 to 135 °C. `C=CCN1C(=O)NC(C)=C(C(=O)OC(C)C)C1c1cccc([N+](=O)[O-])c1` (stereo not given) had a melting point of 172 to 174 °C.

As for `COc1ccc(Cl)cc1C1OC(=O)N(C(C)=O)C1=O` (stereo not given), the melting point lay within 161 to 164 °C. The same measure for `CN(C)c1ccc(CNC(=O)c2ccccc2O)cc1`: 129 to 132 °C; for `CN1C(=O)C(=C(Nc2ccc(-c3cn(C)cn3)cc2)c2ccc(CN)cc2)c2ccccc21`: > 300 °C. The same measure for `CCOC(=O)NC(=O)C1c2ccccc2Sc2ccccc21`: 179 to 182 °C; for `CCc1cc(-c2ccc(OC)cc2)ccc1[N+](=O)[O-]`: 94 to 95 °C.

`CC(CN1CCC(NC(=O)C2CC2)CC1)c1ccc(C(=O)c2ccccc2)cc1` (stereo not given) came in with a melting point of 159 to 160 °C. Then `O=C(O)C(O)=CC(=O)c1c(Cc2ccccc2)[nH]c2ccccc12`, with 165 to 167 °C; and `CCCCN(CCCC)C(=S)C(=S)N(CCCC)CCCC`, with 35 to 38 °C.

`CCCCCCCNC(=O)N(C)c1cccc(-c2ccc(C=C(OC)C(=O)O)cc2)c1`: the melting point stood at 114 °C.

`CCOC(=O)C(=O)Nc1ccc2cc(Br)ccc2c1[N+](=O)[O-]`: the melting point came out at 175 °C. The same measure for `CCOC(=O)NC(=NCCCc1c[nH]cn1)NCCSCc1ccccc1`: 91 to 92 °C.
